Reference: a melting point compilation (Tetko et al.; mined from patent text by program, amines drawn as free bases though some values may be those of a salt)

melting point [°C] | Structure (SMILES)
150 to 152 | CCOc1cc(CCNC(=S)Nc2nccs2)ccc1OC
218 to 220 | CC1CCC(C(=O)Nc2ccc(-c3ncc(-c4ccc(NC(=O)C5CCCCC5C)cc4)[nH]3)cc2)CC1 (centres undefined)
184 to 186 | COC(=O)c1cc(-n2cnnc2)c(C(F)(F)F)cc1N
264 to 266 | Cc1cn(-c2cc(NC(=O)c3cccc(Nc4nccc(-c5cccnc5)n4)c3)cc(C(F)(F)F)c2)cn1
172 to 174 | CC1(C)CS(=O)(=O)c2sc(S(N)(=O)=O)cc2C1O (centres undefined)
194 to 197 | CCN1c2ncccc2C(=O)Nc2c(C)cc(N3CCCC(CO)C3)nc21 (centres undefined)
144 to 146 | C[C@H](NC(=O)OCC1c2ccccc2-c2ccccc21)C(=O)O
116 to 117 | COc1ccc2c(c1)-c1c(nn(-c3ccccn3)c1O)CC2
88 | O=C(OCc1cc(COC(=O)c2ccc(O)c(F)c2)cc(COC(=O)c2ccc(O)c(F)c2)c1)c1ccc(O)c(F)c1
141 to 142 | CC(=O)Oc1ccc(Cl)c2c(=O)c3ccccc3sc12
215 to 217 | Cn1cc([C@H]2CC[C@@H](N3CCN(c4cc(Br)cc5cccnc45)CC3)CC2)c2cc(F)ccc21
122 | CCO[C@@H]1C[C@@H](C(=O)NC)N(S(=O)(=O)c2ccc(Cl)c(CBr)c2Cl)C1
153 | c1ccc(CN2CCN(Cc3c[nH]c4ncccc34)CC2)cc1
115 to 116 | O=[N+]([O-])c1ccc(N2CCCNCC2)cc1
137 to 139 | CC(=O)OCC(CCn1cnc2nc(N)ncc21)COC(C)=O
135 to 138 | CCNc1ccc(CN2OCC(C)(C)C2=O)c(Cl)c1
153 | Cc1ncc(Cn2c(S)nc3ccccc32)o1
104 to 107 | OC1c2ccccc2OC12CCCCCC2 (centres undefined)
173 | Cn1c(=O)cn[nH]c1=O
> 280 | CCOC(=O)Cn1c(=O)[nH]c(=O)c2cc(Cl)c(Cl)cc21
168 to 170 | CCOC(=O)CC[C@H](NC(=O)c1ccc2c(c1)CCN2Cc1cnc2nc(N)nc(N)c2n1)C(=O)OCC
106 to 109 | CON=C(c1ccc(Cl)cc1)C(CNOC)CN1CCN(c2ccccn2)CC1 (centres undefined)
215 to 217 | COc1ccc(C(=O)Nc2c(Cl)cncc2Cl)c2c3ccccc3n(Cc3ccccc3)c12
177 to 184 | COC(=O)C1CCC2C3CCC4CC(O)C(OC)CC4(C)C3C(N)CC12C (centres undefined)

melting point [°C] | Structure (SMILES)
151 to 154 | COc1cc(OC)nc(C2OC(=O)c3c(-c4ccccc4)ccnc32)n1 (centres undefined)
> 250 | COc1cc2c(cc1-c1ccccc1F)NC(=O)CC(c1cc(C#N)ccc1F)=N2
116 to 117 | CCCCCS(=O)(=O)NC(=O)/C(C)=C/c1ccc(OCCCOC)cc1Oc1ncc(Cl)cc1Cl
126 to 128 | Cc1ccc(-c2nn(C(C)(C)C(=O)N(C)C)cc2C)c(Cl)c1
72 | CC1(C)CCS(=O)(=O)N1
188 to 190 | Cc1cc2nncn2nc1-c1ccccc1
147 to 148 | O=C(Nc1ccc(F)cc1)OC1CCCNC1 (centres undefined)
266 | NS(=O)(=O)c1ccc(-c2cc(-c3nc(-c4ccc(Cl)c(Cl)c4)cc(C(F)(F)F)n3)ccn2)s1
68 to 75 | CCc1c(-c2ccc(O)cc2)c2ccc3ccc(COCCN4CCCCC4)c1n32
178 to 179 | O=C(O)C(C1CC(Cl)=NO1)N1C(=O)c2ccccc2C1=O (centres undefined)
245 to 249 | Cc1ccc([N+](=O)[O-])cc1Nc1nnn[nH]1
226 to 227 | COc1cc2c(cc1OC)CN(c1cc(N)c3cc(OC)c(OC)cc3n1)CC2
76.6 to 79.6 | CCc1nn2ccccc2c1N(CCCF)C(C)=O
164 to 165 | NC(=O)CNC(=O)c1cccc(-c2cccc3cc(COc4cc(Cl)cc(Cl)c4)sc23)c1
58 to 60 | COC(=O)CCc1cn(Cc2ccc(C(=O)OC(C)(C)C)cc2OC)c2cc(C(=O)NCC3CCCC3)ccc12
73 | O=S(=O)(C#Cc1ccccc1)c1ccccc1
126 to 127 | Cc1cc(C)nc(N(C(=O)C(Cl)(Cl)Cl)c2ccccc2)n1
169 to 171 | CCOC(=O)c1cn(C2COC2)c2c(F)c(F)cc(F)c2c1=O
64 to 66 | COc1cc(C(C)=O)ccc1OC/C=C\CCl
163 to 166 | O=C(c1cccs1)c1cnn2c(-c3cccc(NC/C=C/c4ccc([N+](=O)[O-])cc4)c3)ccnc12
189 to 190 | Clc1ccc(Nc2nnc(-c3cccc(Oc4ccc(Cl)c(Cl)c4)c3)s2)cc1Cl
202 to 205 | ON=c1cc(-c2cc3cccn3cn2)oc2ccc(OCCCOc3cccnc3)cc12
176 to 178 | COc1cc2onc(C3CCN(c4c(C)[nH]c5ccccc45)CC3)c2cc1OC
214 to 216 | Nc1nc(N)c2cc(Cc3ccc(F)cc3)ccc2n1

melting point [°C] | Structure (SMILES)
172 to 174 | CC(C)(C)C(O)(COc1ccc(Cl)cc1)c1cncnc1 (centres undefined)
68 to 69 | CCc1cc(I)c(CC)cc1I
214 to 217 | CCOC(OCC)c1nc(N)nc(N)c1-c1cccc(Cl)c1Cl
216 to 218 | CCOC(=O)c1cn2c3c(cc(CN4CCOCC4)cc3c1=O)OCC2
105 to 107 | CCOC(=O)NNC(=O)NCCC(=O)OC
73 | Cc1coc2ccc(C#N)cc12
107 to 109 | COc1cccc(-c2[nH]c3ccc(OCc4ccccc4)cc3c2C)c1
201 to 202 | COc1ccc(C(=O)NNC(=O)c2ccccc2)cc1
118 | N[C@@H](CC(=O)N1CCn2c(nnc2C(F)(F)F)C1)Cc1cc(F)c(F)cc1F
96 to 98 | O=C(N[C@H]1CCN(CCc2ccc(F)cc2)C1)C(c1cccs1)c1cccs1
149 to 151 | CC1CN(c2ccccn2)N=C1N (centres undefined)
110 to 112 | O=C(O)COc1cccc2c1Cc1sc(SCCCC(c3ccccc3)c3ccccc3)nc1-2
120 to 121 | CC(=O)ON(C(=O)NN(C)C)C1c2ccccc2Oc2ccccc21
167 to 168 | COC(=O)c1nc2cccc(C)c2c(O)c1C(=O)OC
254 to 255 | Cc1ccc(C(=O)Nc2ccc(C)c(-c3nc(OC(C)C)nc4c3CNC(=O)N4c3c(F)cccc3F)c2)cc1F
228 | COc1cc2c(Cl)c(C(N)=O)cnc2cc1F
142 | CC(C)(C)OC(=O)N[C@@H](Cc1ccccc1)C(=O)NC1CCC(Nc2cccc3c2C(=O)c2ccccc2C3=O)CC1 (some centres undefined)
228 to 230 | CC(=O)Nc1nc(CCc2ccc(NC(=N)N)cc2)c(Cc2ccc(S(C)(=O)=O)cc2)s1
59 to 60 | COC(=O)C=Cc1ccc(C)s1
210 to 212 | O=C1NCCNc2c1sc1ccccc21
130 to 132 | N#CC(F)(F)C(O)(Cn1cncn1)c1ccc(F)cc1F (centres undefined)
189 to 190 | CS(=O)(=O)c1ccc(N2CC(O)(C(F)(F)F)N=C2c2ccccc2)cc1 (centres undefined)
94 to 95 | CC(C)n1c(C=O)c(-c2ccc(F)cc2)c(-c2ccc(F)cc2)c1C(=O)OCc1ccccc1
140 to 142 | COc1cc(OC)nc(C(=O)c2nscc2C(=O)N(C)c2ccccc2)n1

melting point [°C] | Structure (SMILES)
277 to 283 | Cc1nc2[nH]c(=O)[nH]c2cc1-c1ccc(N)cc1
253 | Cc1ccc2c(c1)C=Cc1cc(C)ccc1C2c1cn(Cc2ccc(C(=O)Nc3nc(CC(=O)Nc4nc(CC(=O)O)cs4)cs3)o2)c(=O)[nH]c1=S
144 to 146 | CNC(=S)C1(c2cccnc2)CCCCCC1=O (centres undefined)
161 to 162 | CCCCOc1c(CNC(=O)OC(C)(C)C)n(CC(C)C)c(=O)c2ccc(C(C)=O)cc12
312 to 314 | O=C1CSC(=S)N1N=c1sc2ccc(Cl)cc2s1
178 to 180 | O=C(O)c1cccc(Oc2cccc(-c3nnc(N(Cc4ccc(C(F)(F)P(=O)(O)O)c(Cl)c4)c4ccc(Cl)c(Cl)c4)s3)c2)c1
> 300 | CNn1cc(C(=O)O)c(=O)c2cc3c(cc21)OCO3
111 to 112 | N#Cc1nc(C=Cc2cnn(-c3c(Cl)cc(C(F)(F)F)cc3Cl)n2)[nH]c1C#N
175 | COc1ccc(CC(=O)Nc2cccc3nc(N[C@@H]4CCc5ccccc54)ccc23)cc1
228 to 232 | O=C(Oc1ccccc1N1c2ccccc2S(=O)(=O)c2ccccc21)c1ccccc1
70 | CC(C)(C)OC(=O)C1CCC(c2ccco2)N1C(=O)OC(C)(C)C (mixture of isomers)
139 to 140 | CCNC(=O)c1sc(N2CCN(Cc3ccc(OC(F)(F)F)cc3)C2=O)nc1C
216 | CCOC(=O)c1cn(C)c2nc3c(F)c(N4CCNC(c5ccccc5)C4)c(F)cc3cc2c1=O (racemic)
63 | CCCC(Oc1ccccc1Br)C(=O)O (centres undefined)
210 | OC1CSC(Oc2cncc(-c3cc4ccccc4o3)c2)C(O)C1O (centres undefined)
131 to 133 | COC(=O)COc1ccc(SCc2cc(-c3ccc(Cl)cc3)on2)c2c1CCCO2
271 | COc1ccc(N2C(=O)C(O)=C(C(=O)c3ccc(C(C)C)cc3)C2c2ccc(OC(F)(F)F)cc2)nn1 (centres undefined)
155 to 160 | O=C(O)CCC(=O)c1ccc(O)c(Cl)c1
101 | COC(=O)[C@H](O)[C@@H](N)c1ccccc1
245 to 246 | CCCCCCCc1ccc(C(=O)Nc2ccc3oc(Nc4ccc(CC)cc4)nc3c2)cc1
130 to 132 | COc1c(N)ccc2c1C(CCNC(C)=O)CC2 (centres undefined)
146 to 147 | Cn1c(=O)c2c(nc(Cl)n2Cc2ccccc2)n(C)c1=O

Structure (SMILES) | melting point [°C]
CN1C(=O)[C@H](NC(=O)/C=C/c2ccccc2Br)N=C(c2ccccc2)c2ccccc21 | 113 to 116
COC(=O)c1ccc(CC(C)NCC(O)c2ccc(O)c(CO)c2)c(F)c1 (centres undefined) | 97 to 100
Cc1nc(C(=O)NCCN(C)C)c2n1-c1ccc(Cl)cc1C(c1ccccc1F)=NC2 | 209 to 211
CN(C)C1(Cc2ccccc2)CCC(O)(c2cc3ccccc3o2)CC1 (centres undefined) | 121 to 124
Cc1c(C2CCC(c3ccccc3)(N(C)C)CC2)[nH]c2ccc(O)cc12 (centres undefined) | 164 to 169
